The test system of test [1] is sucrose transporters. The following applies: Bush, 1989, Plant Physiol. 89: 1318-1323; result in words; cited from earlier work.
The target of test [2] is T1, sucrose transporter S21 (SoSUT1) (Spinacia oleracea, UniProt Q03411).
T1 construct: expressed in transfected cells; host or cells: Saccharomyces cerevisiae SUSY7
T1 sequence (Q03411 1-525): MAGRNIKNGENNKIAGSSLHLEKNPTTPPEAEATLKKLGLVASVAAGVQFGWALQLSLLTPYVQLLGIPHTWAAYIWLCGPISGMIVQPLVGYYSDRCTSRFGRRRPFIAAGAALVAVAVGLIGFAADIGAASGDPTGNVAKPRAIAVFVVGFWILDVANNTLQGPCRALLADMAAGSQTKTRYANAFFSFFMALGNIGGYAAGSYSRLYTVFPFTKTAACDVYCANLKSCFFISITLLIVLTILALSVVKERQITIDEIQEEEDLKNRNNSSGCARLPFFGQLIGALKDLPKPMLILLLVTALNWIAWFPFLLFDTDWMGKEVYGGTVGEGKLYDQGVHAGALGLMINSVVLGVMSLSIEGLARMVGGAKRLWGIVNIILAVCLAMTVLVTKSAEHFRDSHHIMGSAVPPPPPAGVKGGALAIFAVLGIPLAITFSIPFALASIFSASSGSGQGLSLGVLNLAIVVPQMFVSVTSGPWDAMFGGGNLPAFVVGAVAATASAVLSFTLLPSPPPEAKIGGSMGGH
As to the kind of experiment: [14C]-sucrose uptake by yeast strain SUSY7 expressing the spinach sucrose transporter. The following applies: [14C]-sucrose uptake, pH 3.8, read-out: Activity relative to the control [%]. Format: cell-based. The protocol:
Yeast cells of the strain SUSY7 (Riesmeier et al., 1992, EMBO J. 11: 4705-4713) are used to identify substances which have an inhibitory effect on sucrose transporters from spinach. Cells of this strain are transformed with a cDNA sequence which codes for the sucrose transporter S21 (SoSUT1) from spinach and which ensures expression of a functional transporter in the cells. The yeast cells are cultured in minimal medium (SD+2% (w/v) sucrose, pH 3.8) at 28° C. and harvested in the logarithmic phase (OD600 =0.6). The cells are spun down at 4000 rpm for 10 minutes and washed twice with SD medium. A cell concentration of c=50 g/l in SD medium is adjusted according to the wet weight of the cells, and 200 μl aliquot fractions are taken. Before the actual reaction, the cells are incubated in 10 mM glucose for 5 min and adjusted to pH 3.8 with MES buffer. The reaction is started by adding 200 μl of a 0.2 mmol/l [14C]-sucrose solution (3 mCi/mmol) in SD medium (pH 3.8). After 20, 60, 120, 180 and 240 seconds, 70 μl portions of the suspension are removed and pipetted into 4 ml of ice-cold water in order to stop the reaction. The cells are filtered off on glass fiber filters and washed twice with ice-cold water. The radioactivity on the filters is subsequently determined in a liquid scintillation counter. The substances to be tested are added 30 seconds before addition of the sucrose. The uptake of radiolabeled sucrose without addition of a potential inhibitor is determined as one control. Cells of the strain SUSY7 which are not transformed with cDNA sequences coding for a sucrose transporter from spinach are employed as further control.
The various tested substances, their concentration and the activity of the transporter, shown as percentage activity of the control in which no potential inhibitors were added, are indicated. Substances which specifically show an inhibitory effect on the sucrose transporter S21 (SoSUT1), are tested for their herbicidal and growth-regulating effect on whole plants.

Test [3] has as its target T2, ammonium transporter AMT1 (Arabidopsis thaliana, UniProt P54144).
T2 construct: expressed in transfected cells; host or cells: Saccharomyces cerevisiae 26972c (mutations in MEP1 and MEP2)
T2 sequence (P54144 1-501): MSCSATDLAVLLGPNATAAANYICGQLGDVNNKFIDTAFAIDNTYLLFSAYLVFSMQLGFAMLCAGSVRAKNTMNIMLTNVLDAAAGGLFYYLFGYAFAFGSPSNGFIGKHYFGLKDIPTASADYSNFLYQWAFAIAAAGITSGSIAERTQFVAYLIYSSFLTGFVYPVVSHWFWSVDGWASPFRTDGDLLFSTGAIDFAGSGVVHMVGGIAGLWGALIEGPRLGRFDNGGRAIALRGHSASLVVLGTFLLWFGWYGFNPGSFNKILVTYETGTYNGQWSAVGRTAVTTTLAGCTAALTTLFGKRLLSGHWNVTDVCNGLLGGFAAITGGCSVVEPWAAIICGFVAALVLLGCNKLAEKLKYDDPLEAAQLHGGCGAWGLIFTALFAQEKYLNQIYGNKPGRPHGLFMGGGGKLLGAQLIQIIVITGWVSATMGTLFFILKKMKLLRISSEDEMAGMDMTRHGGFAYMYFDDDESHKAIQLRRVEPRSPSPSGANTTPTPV
As to the kind of experiment: cell-based. Particulars: pH 7; [14C]-methylamine uptake; tested substance 10 μM; read-out: Activity relative to the control [%].
Experimental: The measurements of transport identify inhibitors of plant ammonium transporters are carried out with the structural analog methylamine because radiolabeled ammonium is not commercially obtainable.
The yeast cells are transformed by standard methods with cDNA sequences which code for an ammonium transporter from plants and which permit expression of a functional transporter in the yeast cells. […] The cells are cultured in NAAG-medium (2% glucose, 1.7 g/l yeast nitrogen-base w/o amino acids and ammonium sulfate (Difco), supplemented with 500 μg/ml L-proline) at 28 degrees Celsius, and harvested in the logarithmic phase (OD660.=0.6). The cells are then spun down in a centrifuge at 4000 rpm and 4 degrees Celsius for 10 minutes, washed twice with 20 mM sodium phosphate buffer, pH 7, and taken up in the same buffer to an 0D660 of 8. 200 μl aliquot fractions of the cell suspension are taken. 5 minutes before the actual measurement,the yeasts are activated by addition of 100 mM glucose and incubated at 30 degrees Celsius. To start the reaction, 100 μl of the cell suspension are added to 100 µl of reaction mixture (20 mM Na phosphate buffer, pH7; 18.5 kBq of [^14 C]-methylamine (NEN); 100 M methylamine; substance to be tested depending on the experiment (see FIG. 4)). In each case 10, 60, 120 and 180 seconds after starting the reaction, 50 μl aliquots are taken, added to 4 ml of ice-cold 5 mM methylamine solution and filtered on glass fibre filters. After the filters have been washed with a further 8 ml of a methylamine solution, the radioactivity on the filters is subsequently determined in a liquid scintillation counter. Inhibitors are added 60 seconds before adding the glucose.
The uptake of radiolabeled methylamine without addition of a potential inhibitor is determined as one control.

The text below walks through data of patent US5750362A, “Methods for identifying substances with a potential herbicidal or growth-regulating action by means of plant transporter proteins, the use of the transporter proteins, and substances with a herbicidal and growth-regulating action” (BASF Aktiengesellschaft, priority 1993, dated 1998).

In the case of `CCOC(=O)OC(=O)OCC` [DEPC, diethyl pyrocarbonate], in test [1], the “Inhibition of sucrose transport” value is listed as “highly effective transport inhibitors”. Also, the remaining activity at 500 µM in test [2] (tested substance 0.5 mM) was determined as 6%.

As to `N#CC(C#N)=NNc1cccc(Cl)c1` [CCCP], the remaining activity at 10 µM in test [3] was 40%; in test [2] (tested substance 10 μM), 10%.
